In general, EC50 refers to the concentration at which the effect is half-maximal.

Protein cereblon/Tyrosine-protein kinase JAK2, sequence (O60674 whole entry): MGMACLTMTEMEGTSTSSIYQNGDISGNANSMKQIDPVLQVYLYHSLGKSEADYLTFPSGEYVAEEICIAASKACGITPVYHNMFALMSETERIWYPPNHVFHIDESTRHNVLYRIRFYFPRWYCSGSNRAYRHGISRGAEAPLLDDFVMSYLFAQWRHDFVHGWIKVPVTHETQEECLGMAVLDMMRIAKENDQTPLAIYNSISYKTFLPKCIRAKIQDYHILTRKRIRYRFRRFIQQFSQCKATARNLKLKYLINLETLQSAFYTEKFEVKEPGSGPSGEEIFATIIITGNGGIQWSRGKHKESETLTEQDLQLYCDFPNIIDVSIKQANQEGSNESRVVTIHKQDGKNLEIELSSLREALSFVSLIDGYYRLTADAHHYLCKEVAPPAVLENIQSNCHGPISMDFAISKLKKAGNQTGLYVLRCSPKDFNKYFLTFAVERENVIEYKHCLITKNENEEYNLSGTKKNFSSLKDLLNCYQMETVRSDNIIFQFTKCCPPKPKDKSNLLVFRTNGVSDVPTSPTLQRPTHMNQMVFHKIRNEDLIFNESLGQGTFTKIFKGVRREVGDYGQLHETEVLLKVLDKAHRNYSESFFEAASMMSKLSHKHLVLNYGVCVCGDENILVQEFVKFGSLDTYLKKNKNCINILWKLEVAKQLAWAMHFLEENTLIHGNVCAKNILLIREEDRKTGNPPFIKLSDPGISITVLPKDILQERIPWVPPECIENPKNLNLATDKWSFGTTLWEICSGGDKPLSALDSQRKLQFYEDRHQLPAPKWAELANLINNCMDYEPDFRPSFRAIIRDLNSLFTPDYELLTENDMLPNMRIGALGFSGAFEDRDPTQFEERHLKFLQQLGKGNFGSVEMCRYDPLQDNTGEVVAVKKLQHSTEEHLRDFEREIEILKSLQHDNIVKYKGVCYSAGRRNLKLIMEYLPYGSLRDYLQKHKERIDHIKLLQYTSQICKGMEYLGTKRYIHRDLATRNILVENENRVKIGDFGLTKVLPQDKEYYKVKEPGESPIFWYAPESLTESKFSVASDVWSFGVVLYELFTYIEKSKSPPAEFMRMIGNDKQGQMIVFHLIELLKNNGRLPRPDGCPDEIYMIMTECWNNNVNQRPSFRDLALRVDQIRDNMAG
Protein cereblon/Tyrosine-protein kinase JAK2, sequence (Q96SW2 whole entry): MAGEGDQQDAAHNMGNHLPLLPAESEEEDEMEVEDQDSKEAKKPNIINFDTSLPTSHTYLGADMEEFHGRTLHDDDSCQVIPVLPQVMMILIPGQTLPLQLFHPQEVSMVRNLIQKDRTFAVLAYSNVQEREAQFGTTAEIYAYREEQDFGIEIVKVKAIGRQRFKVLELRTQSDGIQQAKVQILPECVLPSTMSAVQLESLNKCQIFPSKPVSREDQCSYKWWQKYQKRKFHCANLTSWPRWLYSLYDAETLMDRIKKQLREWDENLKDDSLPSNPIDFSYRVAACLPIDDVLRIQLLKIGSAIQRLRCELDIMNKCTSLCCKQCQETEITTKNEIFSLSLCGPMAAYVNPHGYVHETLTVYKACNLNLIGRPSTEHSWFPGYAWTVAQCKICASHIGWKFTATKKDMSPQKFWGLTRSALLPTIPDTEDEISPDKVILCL

The assay addresses Protein cereblon/Tyrosine-protein kinase JAK2 (Homo sapiens, UniProt O60674+Q96SW2). The experiment in a line: PROTAC activity at CRBN/JAK2 in human MHHCALL4 cells assessed as protein degradation by immunoblot analysis. In kind it is cell-based. A general note: In western blotting, separated proteins are transferred to a membrane and probed.
For the molecule `CCCn1cc(-c2nc(Nc3ccc(C(=O)NCCCCNc4cccc5c4C(=O)N(C4CCC(=O)NC4=O)C5=O)cc3)nc3[nH]ccc23)cn1` (stereo not drawn), the EC50 was found to be 0.2 nM. Under `CCCn1cc(-c2nc(Nc3ccc(C(=O)NCCOCCOCCOCCOCCNc4cccc5c4C(=O)N(C4CCC(=O)NC4=O)C5=O)cc3)nc3[nH]ccc23)cn1` (stereo not drawn) stands 2300 nM.

Turning to `CCCn1cc(-c2nc(Nc3ccc(C(=O)NCCOCCOCCOCCOCCOCCNc4cccc5c4C(=O)N(C4CCC(=O)NC4=O)C5=O)cc3)nc3[nH]ccc23)cn1` (stereo not drawn), the concentration giving a half-maximal response (EC50) was 1100 nM. For `CCCn1cc(-c2nc(Nc3ccc(C(=O)NCCOCCOCCOCCOCCOCCOCCNc4cccc5c4C(=O)N(C4CCC(=O)NC4=O)C5=O)cc3)nc3[nH]ccc23)cn1` (stereo not drawn), the EC50 was 720 nM.

Turning to `N#CC[C@H](C1CCCC1)n1cc(-c2nc(Nc3ccc(C(=O)NCCCCNc4cccc5c4C(=O)N(C4CCC(=O)NC4=O)C5=O)cc3)nc3[nH]ccc23)cn1` (stereo partly drawn), the EC50 stood at 3.9 nM. Under `CCCn1cc(-c2nc(Nc3ccc(C(=O)NCCCCCNc4cccc5c4C(=O)N(C4CCC(=O)NC4=O)C5=O)cc3)nc3[nH]ccc23)cn1` (stereo not drawn) stands 0.9 nM. With `CCCn1cc(-c2nc(Nc3ccc(C(=O)NCCCNc4cccc5c4C(=O)N(C4CCC(=O)NC4=O)C5=O)cc3)nc3[nH]ccc23)cn1` (stereo not drawn), the EC50 is 0.5 nM.

With `CCCn1cc(-c2nc(Nc3ccc(C(=O)NCCCCCNc4cccc5c4CN(C4CCC(=O)NC4=O)C5=O)cc3)nc3[nH]ccc23)cn1` (stereo not drawn), the EC50 stood at 0.5 nM.

Values taken from ChEMBL document CHEMBL4706764, “PROTAC-Mediated Degradation of Janus Kinase as a Therapeutic Strategy for Cancer and Rheumatoid Arthritis” (ACS Med Chem Lett, 2021).
